From patent publication US6737383B1, “Herbicidal oxadiazolidines” (priority 1999, dated 2004)

Key:
wild oat = test: Test B pre/postemergence wild oat; assay type: in vivo, Avena fatua
How it was run: (§1)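 Herbicidal effect was estimated by eye on a ten-point control scale after plants spent twelve to sixteen days in a greenhouse following soil or foliar treatment. Foliar sprays targeted plants at one to four leaves; all doses were formulated in a non-phytotoxic solvent with surfactant.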

wheat = test: Test B pre/postemergence wheat; assay type: in vivo, Triticum aestivum
How it was run: as §1

blackgrass = test: Test B pre/postemergence blackgrass; assay type: in vivo, Alopecurus myosuroides
How it was run: as §1

pigweed = test: Test B pre/postemergence pigweed; assay type: in vivo, Amaranthus retroflexus
How it was run: as §1

rape = test: Test B pre/postemergence rape; assay type: in vivo, Brassica napus
How it was run: as §1

surinam grass = test: Test B pre/postemergence surinam grass; assay type: in vivo, Brachiaria decumbens
How it was run: as §1

bedstraw = test: Test B pre/postemergence bedstraw; assay type: in vivo, Galium aparine
How it was run: as §1

corn = test: Test B pre/postemergence corn; assay type: in vivo, Zea mays
How it was run: as §1

velvetleaf = test: Test B pre/postemergence velvetleaf; assay type: in vivo, Abutilon theophrasti
How it was run: as §1

purple nutsedge = test: Test B pre/postemergence purple nutsedge; assay type: in vivo, Cyperus rotundus
How it was run: as §1

crabgrass = test: Test B pre/postemergence crabgrass; assay type: in vivo, Digitaria sanguinalis
How it was run: as §1

rice = test: Test B flood test rice; assay type: in vivo, Oryza sativa
How it was run: (§2)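 Each value is a visual injury score relative to controls, with 10 meaning complete control and 0 no effect. Evaluation took place twelve to sixteen days after the 2-leaf-stage plants were treated and kept in the greenhouse.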

duck salad = test: Test B flood test duck salad; assay type: in vivo, Heteranthera limosa
How it was run: as §2

sugar beet = test: Test B pre/postemergence sugar beet; assay type: in vivo, Beta vulgaris
How it was run: as §1

soybean = test: Test B pre/postemergence soybean; assay type: in vivo, Glycine max
How it was run: as §1

smallflower flatsedge = test: Test B flood test smallflower flatsedge; assay type: in vivo, Cyperus difformis
How it was run: as §2

[1] = Postemergence, Rate 62 g/ha, scale 0 to 10, 0 is no effect, 10 is complete control
[2] = Postemergence, Rate 250 g/ha, scale 0 to 10, 0 no effect, 10 complete control
[3] = Preemergence, Rate 62 g/ha, scale 0 to 10 (0 no effect, 10 complete control)
[4] = Preemergence, Rate 125 g/ha, scale 0 to 10 (0 no effect, 10 complete control)
[5] = Preemergence, Rate 250 g/ha, scale of 0 to 10 where 0 is no effect and 10 is complete control
[6] = Preemergence, Rate 500 g/ha, scale 0 (no effect) to 10 (complete control)
[7] = Rate 125 g/ha, Postemergence, scale 0 to 10, 0 no effect, 10 complete control
[8] = Rate 500 g/ha, Postemergence, scale 0 to 10, 0 no effect, 10 complete control
[9] = Rate 125 g/ha, Postemergence section (flood test species), scale 0 to 10, 0 no effect, 10 complete control
[10] = Rate 500 g/ha, listed under Postemergence (flood test species), scale 0 to 10, 0 no effect, 10 complete control
[11] = flood test, listed under Postemergence, Rate 250 g/ha, scale 0 to 10, 0 no effect, 10 complete control

## CC(C)N(C(=O)n1oc(=O)n(Cc2cccs2)c1=O)c1ccc(F)cc1 [Compound 80]
Wild oat; [1]
  Wild oats plant response rating: 0
Wild oat; [2]
  Wild oats plant response rating: 0
Wild oat; [3]
  Wild oats plant response rating: 0
Wild oat; [4]
  Plant response rating, Wild oats: 2
Wild oat; [5]
  Plant response rating, Wild oats: 3
Wild oat; [6]
  Wild oats plant response rating: 5
Wild oat; [7]
  Wild oats plant response rating: 0
Wild oat; [8]
  Wild oats plant response rating: 0
wheat; [1]
  Wheat plant response rating: 0
wheat; [2]
  Wheat plant response rating: 0
wheat; [3]
  Wheat plant response rating: 0
wheat; [4]
  Plant response rating, Wheat: 0
wheat; [5]
  Plant response rating, Wheat: 0
wheat; [6]
  Wheat plant response rating: 0
wheat; [7]
  Wheat plant response rating: 0
wheat; [8]
  Wheat plant response rating: 0
blackgrass; [1]
  Blackgrass plant response rating: 2
blackgrass; [2]
  Blackgrass plant response rating: 3
blackgrass; [3]
  Blackgrass plant response rating: 0
blackgrass; [4]
  Plant response rating, Blackgrass: 2
blackgrass; [5]
  Plant response rating, Blackgrass: 4
blackgrass; [6]
  Blackgrass plant response rating: 6
blackgrass; [7]
  Blackgrass plant response rating: 2
blackgrass; [8]
  Blackgrass plant response rating: 5
pigweed; [1]
  Redroot pigweed plant response rating: 2
pigweed; [2]
  Redroot pigweed plant response rating: 4
pigweed; [4]
  Plant response rating, Redroot pigweed: 7
pigweed; [5]
  Plant response rating, Redroot pigweed: 7
pigweed; [6]
  Redroot pigweed plant response rating: 7
pigweed; [7]
  Redroot pigweed plant response rating: 3
pigweed; [8]
  Redroot pigweed plant response rating: 4
rape; [1]
  Rape plant response rating: 2
rape; [2]
  Rape plant response rating: 3
rape; [3]
  Rape plant response rating: 0
rape; [4]
  Plant response rating, Rape: 3
rape; [5]
  Plant response rating, Rape: 4
rape; [6]
  Rape plant response rating: 5
rape; [7]
  Rape plant response rating: 2
rape; [8]
  Rape plant response rating: 3
Surinam grass; [1]
  B. signalgrass plant response rating: 0
Surinam grass; [2]
  B. signalgrass plant response rating: 0
Surinam grass; [3]
  B. signalgrass plant response rating: 0
Surinam grass; [4]
  Plant response rating, B. signalgrass: 0
Surinam grass; [5]
  Plant response rating, B. signalgrass: 0
Surinam grass; [6]
  B. signalgrass plant response rating: 4
Surinam grass; [7]
  B. signalgrass plant response rating: 0
Surinam grass; Rate 500 g/ha, Postemergence, scale of 0 to 10 where 0 is no effect and 10 is complete control
  B. signalgrass plant response rating: 0
bedstraw; [1]
  Bedstraw plant response rating: 0
bedstraw; [2]
  Bedstraw plant response rating: 0
bedstraw; [3]
  Bedstraw plant response rating: 0
bedstraw; [4]
  Plant response rating, Bedstraw: 0
bedstraw; [5]
  Plant response rating, Bedstraw: 0
bedstraw; [6]
  Bedstraw plant response rating: 0
bedstraw; [7]
  Bedstraw plant response rating: 0
bedstraw; [8]
  Bedstraw plant response rating: 6
corn; [1]
  Corn plant response rating: 0
corn; [2]
  Corn plant response rating: 0
corn; [3]
  Corn plant response rating: 0
corn; [4]
  Plant response rating, Corn: 0
corn; [5]
  Plant response rating, Corn: 0
corn; [6]
  Corn plant response rating: 0
corn; [7]
  Corn plant response rating: 0
corn; [8]
  Corn plant response rating: 0
velvetleaf; [1]
  Velvetleaf plant response rating: 0
velvetleaf; [2]
  Velvetleaf plant response rating: 0
velvetleaf; [3]
  Velvetleaf plant response rating: 0
velvetleaf; [4]
  Plant response rating, Velvetleaf: 0
velvetleaf; [5]
  Plant response rating, Velvetleaf: 2
velvetleaf; [6]
  Velvetleaf plant response rating: 3
velvetleaf; [7]
  Velvetleaf plant response rating: 0
velvetleaf; [8]
  Velvetleaf plant response rating: 0
Purple nutsedge; [1]
  Nutsedge plant response rating: 0
Purple nutsedge; [2]
  Nutsedge plant response rating: 0
Purple nutsedge; [3]
  Nutsedge plant response rating: 0
Purple nutsedge; [4]
  Plant response rating, Nutsedge: 0
Purple nutsedge; [5]
  Plant response rating, Nutsedge: 0
Purple nutsedge; [6]
  Nutsedge plant response rating: 0
Purple nutsedge; [7]
  Nutsedge plant response rating: 0
Purple nutsedge; [8]
  Nutsedge plant response rating: 0
crabgrass; [1]
  Crabgrass plant response rating: 2
crabgrass; [2]
  Crabgrass plant response rating: 9
crabgrass; [3]
  Crabgrass plant response rating: 3
crabgrass; [4]
  Plant response rating, Crabgrass: 3
crabgrass; [5]
  Plant response rating, Crabgrass: 10
crabgrass; [6]
  Crabgrass plant response rating: 10
crabgrass; [7]
  Crabgrass plant response rating: 9
crabgrass; [8]
  Crabgrass plant response rating: 9
rice; [1]
  Rice plant response rating: 0
rice; [9]
  Rice plant response rating: 0
rice; [10]
  Rice plant response rating: 2
rice; [11]
  Rice plant response rating: 0
Duck salad; [1]
  Ducksalad plant response rating: 0
Duck salad; [9]
  Ducksalad plant response rating: 0
Duck salad; [10]
  Ducksalad plant response rating: 2
Duck salad; [11]
  Ducksalad plant response rating: 0
Sugar beet; [2]
  Sugarbeets plant response rating: 4
Sugar beet; [3]
  Sugarbeets plant response rating: 0
Sugar beet; [4]
  Plant response rating, Sugarbeets: 3
Sugar beet; [5]
  Plant response rating, Sugarbeets: 4
Sugar beet; [6]
  Sugarbeets plant response rating: 5
Sugar beet; [7]
  Sugarbeets plant response rating: 3
Sugar beet; [8]
  Sugarbeets plant response rating: 7
soybean; [1]
  Soybean plant response rating: 0
soybean; [2]
  Soybean plant response rating: 1
soybean; [3]
  Soybean plant response rating: 0
soybean; [4]
  Plant response rating, Soybean: 0
soybean; [5]
  Plant response rating, Soybean: 0
soybean; [6]
  Soybean plant response rating: 0
soybean; [7]
  Soybean plant response rating: 1
soybean; [8]
  Soybean plant response rating: 2
Smallflower flatsedge; [1]
  S. Flatsedge plant response rating: 0
Smallflower flatsedge; [9]
  S. Flatsedge plant response rating: 0
Smallflower flatsedge; [10]
  S. Flatsedge plant response rating: 3
Smallflower flatsedge; [11]
  S. Flatsedge plant response rating: 3
